Results reported in patent US20220111056A1, “DRUG-LOADED EMULSION” (ZHEJIANG ZHIDA PHARMACEUTICAL CO., LTD., priority 2019, published 2022).

Type: physicochemical
Description: The specific experimental method was as follows. […] The chloroform solution was mixed with 0.5 ml of chloroform, from which 0.5 ml of diluent was taken and two-fold serial dilution was performed by using chloroform. Then 0.5 ml of a chloroform solution of paclitaxel (10 mg/ml) was added to the above-mentioned sample after the two-fold serial dilution, and then left in a hood to be naturally volatilized overnight. Crystal formation in the dried sample was observed and recorded.

With castor oil the “solubility of paclitaxel (crystal formation)” value was “+”.
